The subject of assay [1] is Astroglial cells derived from the mouse forebrain. Nature of the assay: Synthesis-stimulating activity on NGF (NGF level in culture medium by enzyme immunoassay). The following applies: Mus musculus, 24 h; for fold induction at 2 µg/mL / fold induction at 50 µg/mL: read-out: Synthesis-Stimulating Activity on NGF. Format: cell-based. On the procedure: The activity of accelerating secretion of NGF was evaluated by the following method.
Each compound shown in Table 1 was dissolved in dimethylsulfoxide (DMSO) to adjust the concentration in the range of 2 mg/ml to 10 mg/ml.
Astroglial cells derived from the mouse forebrain (cells that synthesize and secrete NGF)
Astroglial cells obtained from the mouse forebrain were cultured into 8 x 10⁵ cells/ml in Dulbecco's modified Eagle's medium obtained from Gibco, glucose-rich, containing 20% fetal calf serum, 100 units/ml of penicillin and 100 µg/ml of streptomycin. A 0.1 ml/well aliquot was inoculated on a 96-well plate obtained from Falcon and having an area of 0.32 cm² per well and cultured at 37°C in an atmosphere of 5% CO₂. The culture medium was removed 72 hours later and instead, a 0.1 ml/well aliquot of fresh Dulbecco's modified Eagle's medium containing 0.5% bovine albumin powders obtained from Armour, 100 units/ml of penicillin and 100 µg/ml of streptomycin was supplemented to the system followed by culturing at 37°C in 5% CO₂. The above medium containing the compound each having various concentrations was exchanged 72 hours later. For the purpose of comparison, the medium which contains only DMSO was also prepared (control).
The synthesis-stimulating activity on NGF by the compound of the present invention is shown in terms of a ratio when the NGF level in the control containing only DMSO was made 1.0.

Assay [2] deals with Cerebral cortical neuronal cells from an 18-day-old rat embryo. Nature of the assay: Test on neurotrophic activity (living cells counted by fluorescein diacetate fluorescence, with or without hypoxic load). The class given is cell-based. On the procedure: The neurotrophic activity was determined by the following method. Each compound was dissolved in DMSO to adjust the concentration in the range of 2 mg/ml to 10 mg/ml. Cerebral cortical neuronal cells from an 18-day-old rat embryo […] After 24 hours of incubation, the culture medium was removed and a 0.5 ml/well aliquot of a serum-free fresh DF medium containing the respective compounds having various concentrations, 5 µg/ml of transferrin, 5 µg/ml of insulin and 20 pmoles/ml of progesterone was supplemented to the system. For the purpose of comparison, the medium containing only DMSO was added was also prepared. At this stage, the two same plates were used. After 72 hours of incubation in various medium, hypoxia was loaded on one plate by reducing the concentration of oxygen to the minimum concentration of 1% using a N₂-O₂-CO₂ incubator (manufactured by Tabai, Model BNP-100) and culturing for 4 hours under the conditions. Another plate was cultured in an atmosphere of 5% CO₂ and 95% air, without hypoxic load. After the incubation was continued for further 48 hours, living cells were counted. The culture medium was removed and fluorescein diacetate (FDA) reagent was reacted. After washing with phosphate buffer, pH 7.4, the fluorescent intensity (E x 485/Em 530) was measured by CytoFlour^TM 2300, manufactured by Millipore.

Setting [3] is: no hypoxic load, ratio of fluorescent intensity to DMSO control = 1.0, read-out: Neurotrophic Activity No Hypoxic Load.
The mark [4] stands for this setting: 4 h, hypoxic load (1% oxygen, 4 hours), ratio of fluorescent intensity to DMSO control = 1.0, read-out: Neurotrophic Activity Hypoxic Load.
The mark [5] stands for this setting: 2 µg/ml, ratio to DMSO control = 1.0, 24 hours.
The mark [6] stands for this setting: 50 µg/ml, ratio to DMSO control = 1.0, 24 hours.

Where two headings read alike, the source gives them in different places.

As to `c1ccc(-c2cccc(-c3ccccn3)n2)nc1` [Compound 1], the fold induction at 1 µg/mL in assay [1] (1 µg/ml, ratio to DMSO control = 1.0) came out at 2.3. Moreover, the fold induction at 5 µg/mL in assay [1] (ratio to DMSO control = 1.0) worked out at 3.5. In addition, the viability at 2 µg/mL in assay [2] (setting [3]) was found to be 270%; in assay [2] (setting [4]), 140%. Moreover, the viability at 10 µg/mL came to 320% in assay [2] (setting [3]) and 220% in assay [2] (setting [4]).

For the compound `c1ccc(-c2cc(-c3ccccn3)nc(-c3ccccn3)c2)cc1` [Compound 2, 4'-Phenyl-2,2':6',2''-terpyridine], in assay [1] (ratio to DMSO control = 1.0), the fold induction at 20 µg/mL was found to be 2.6 and the fold induction at 100 µg/mL was 2.2. For the same compound, in assay [2] (setting [3]), the viability at 2 µg/mL came to 180% and the viability at 10 µg/mL turned out to be 130%. Moreover, in assay [2] (setting [4]), the viability at 2 µg/mL is 170% and the viability at 10 µg/mL was found to be 50%.

For the compound `Cc1ccccc1-c1cc(-c2ccccn2)nc(-c2ccccn2)c1` [Compound 3, 4'-(2-Methylphenyl)-2,2':6',2''-terpyridine], the fold induction at 2 µg/mL in assay [1] (setting [5]) was 1.5. In addition, in assay [1] (ratio to DMSO control = 1.0), the fold induction at 10 µg/mL turned out to be 2.9. Also, in assay [2] (setting [3]), the viability at 2 µg/mL was found to be 240% and the viability at 10 µg/mL was determined as 150%. For the same compound, in assay [2] (setting [4]), the viability at 2 µg/mL was determined as 280% and the viability at 10 µg/mL worked out at 140%.

On to `Cc1cccc(-c2cc(-c3ccccn3)nc(-c3ccccn3)c2)c1` [Compound 4, 4'-(3-Methylphenyl)-2,2':6',2''-terpyridine], for which the fold induction at 2 µg/mL in assay [1] (setting [5]) came to 1.8. For the same compound, the fold induction at 10 µg/mL in assay [1] (ratio to DMSO control = 1.0) was 1.3. For the same compound, the fold induction at 50 µg/mL in assay [1] (setting [6]) was 1.2. Also, the figures for the viability at 2 µg/mL in assay [2] (setting [3]) and in assay [2] (setting [4]) were 170% and 180%, respectively.

As to `CCc1ccc(-c2cc(-c3ccccn3)nc(-c3ccccn3)c2)cc1` [Compound 7, 4'-(4-Ethylphenyl)-2,2':6',2''-terpyridine], the fold induction at 2 µg/mL in assay [1] (setting [5]) is 2.9. The fold induction at 10 µg/mL in assay [1] (ratio to DMSO control = 1.0) was 1. In addition, in assay [1] (setting [6]), the fold induction at 50 µg/mL stood at 1.2.

Regarding `CC(C)c1ccc(-c2cc(-c3ccccn3)nc(-c3ccccn3)c2)cc1` [Compound 8, 4'-(4-Isopropylphenyl)-2,2':6',2''-terpyridine], the fold induction at 2 µg/mL in assay [1] (setting [5]) was 1.7. For the same compound, in assay [1] (ratio to DMSO control = 1.0), the fold induction at 10 µg/mL was 3.2. Further, in assay [1] (setting [6]), the fold induction at 50 µg/mL is 2.4.

With `Clc1ccc(-c2cc(-c3ccccn3)nc(-c3ccccn3)c2)cc1` [Compound 11, 4'-(4-Chlorophenyl)-2,2':6',2''-terpyridine], the fold induction at 5 µg/mL in assay [1] (ratio to DMSO control = 1.0) worked out at 4.7. In addition, in assay [1] (17 µg/ml, ratio to DMSO control = 1.0), the fold induction at 17 µg/mL stood at 3.4. For the same compound, the fold induction at 50 µg/mL in assay [1] (setting [6]) was found to be 2.2. Besides, in assay [2] (setting [3]), the viability at 2 µg/mL was 170% and the viability at 10 µg/mL is 130%. Further, in assay [2] (setting [4]), the viability at 2 µg/mL is 160% and the viability at 10 µg/mL was determined as 140%.

Regarding `Oc1ccccc1-c1cc(-c2ccccn2)nc(-c2ccccn2)c1` [Compound 12, 2-(2,2':6',2''-Terpyridin-4'-yl)phenol], in assay [1] (ratio to DMSO control = 1.0), the fold induction at 20 µg/mL amounted to 3.7 and the fold induction at 100 µg/mL was determined as 3.

On to `COc1ccc(-c2cc(-c3ccccn3)nc(-c3ccccn3)c2)cc1` [Compound 13, 4'-(4-Methoxyphenyl)-2,2':6',2''-terpyridine], for which, in assay [1] (ratio to DMSO control = 1.0), the fold induction at 20 µg/mL was 1.7 and the fold induction at 100 µg/mL amounted to 1.8. Also, the viability at 2 µg/mL in assay [2] (setting [3]) was 180%. The viability at 2 µg/mL in assay [2] (setting [4]) was found to be 70%.

Take `CCOc1ccc(-c2cc(-c3ccccn3)nc(-c3ccccn3)c2)cc1` [Compound 14, 4'-(4-Ethoxyphenyl)-2,2':6',2''-terpyridine]: in assay [1] (setting [5]), the fold induction at 2 µg/mL was 2.1. Moreover, the fold induction at 10 µg/mL in assay [1] (ratio to DMSO control = 1.0) worked out at 4.8. Besides, in assay [1] (setting [6]), the fold induction at 50 µg/mL turned out to be 2.9.

For `OCCOc1ccc(-c2cc(-c3ccccn3)nc(-c3ccccn3)c2)cc1` [Compound 15, 2-[4-(2,2':6',2''-Terpyridin-4'-yl)phenoxy]ethanol], in assay [1] (ratio to DMSO control = 1.0), the fold induction at 20 µg/mL turned out to be 1.7 and the fold induction at 100 µg/mL was 4.2.

As to `O=[N+]([O-])c1cccc(-c2cc(-c3ccccn3)nc(-c3ccccn3)c2)c1` [Compound 17, 4'-(3-Nitrophenyl)-2,2':6',2''-terpyridine], in assay [1] (ratio to DMSO control = 1.0), the fold induction at 20 µg/mL is 1 and the fold induction at 100 µg/mL was determined as 2.8.

As for `Nc1cccc(-c2cc(-c3ccccn3)nc(-c3ccccn3)c2)c1` [Compound 18, 4'-(3-Aminophenyl)-2,2':6',2''-terpyridine], in assay [1] (ratio to DMSO control = 1.0), the fold induction at 10 µg/mL was determined as 5.7, the fold induction at 30 µg/mL amounted to 2 and the fold induction at 100 µg/mL stood at 4.6. Further, the viability at 2 µg/mL in assay [2] (setting [3]) was determined as 110%. In addition, in assay [2] (setting [4]), the viability at 2 µg/mL is 140%.

Take `O=C(O)c1ccc(-c2cc(-c3ccccn3)nc(-c3ccccn3)c2)cc1` [Compound 19, 4-(2,2':6',2''-Terpyridin-4'-yl)benzoic acid]: the fold induction at 2 µg/mL in assay [1] (setting [5]) is 2.4. Besides, in assay [1] (ratio to DMSO control = 1.0), the fold induction at 10 µg/mL was 2.4. In assay [1] (setting [6]), the fold induction at 50 µg/mL worked out at 3.6.

As to `BrCc1ccc(-c2cc(-c3ccccn3)nc(-c3ccccn3)c2)cc1` [Compound 21, 4'-(4-Bromomethylphenyl)-2,2':6',2''-terpyridine], in assay [1] (ratio to DMSO control = 1.0), the fold induction at 20 µg/mL stood at 2.7 and the fold induction at 100 µg/mL is 5.2. The viability at 2 µg/mL in assay [2] (setting [3]) is 140%. Besides, in assay [2] (setting [4]), the viability at 2 µg/mL came out at 200%.

As for `c1ccc(-c2cc(-c3ccc(Cn4cccc4)cc3)cc(-c3ccccn3)n2)nc1` [Compound 22, 4'-[4-(1-pyrrorylmethyl)phenyl]-2,2':6',2''-terpyridine], in assay [1] (setting [5]), the fold induction at 2 µg/mL came to 1.7. In assay [1] (ratio to DMSO control = 1.0), the fold induction at 10 µg/mL came to 1.1. The viability at 2 µg/mL is 120% in assay [2] (setting [3]) and 100% in assay [2] (setting [4]). Moreover, the viability at 10 µg/mL is 170% in assay [2] (setting [3]) and 180% in assay [2] (setting [4]).

Consider `C[N+](C)(C)Cc1ccc(-c2cc(-c3ccccn3)nc(-c3ccccn3)c2)cc1` [Compound 23, N,N,N-Trimethyl-N-[4-(2,2':6',2''-terpyridin-4'-yl)phenylmethyl]ammonium bromide], for which, in assay [1] (ratio to DMSO control = 1.0), the fold induction at 10 µg/mL is 3.2, the fold induction at 30 µg/mL came out at 5.6 and the fold induction at 100 µg/mL was 1.3. Also, in assay [2] (setting [3]), the viability at 2 µg/mL amounted to 250% and the viability at 10 µg/mL came out at 130%. For the same compound, in assay [2] (setting [4]), the viability at 2 µg/mL is 300% and the viability at 10 µg/mL is 160%.

Turning to `CCCCCCCCCCCC[N+](C)(C)Cc1ccc(-c2cc(-c3ccccn3)nc(-c3ccccn3)c2)cc1` [Compound 24, N-Dodecyl-N,N-dimethyl-N-[4-(2,2':6',2''-terpyridin-4'-yl)phenylmethyl]ammonium bromide], the fold induction at 2 µg/mL in assay [1] was found to be 2.1. The fold induction at 50 µg/mL in assay [1] was found to be 1. The viability at 2 µg/mL was found to be 200% in assay [2] (setting [3]) and 190% in assay [2] (setting [4]).

In the case of `c1cc[n+](Cc2ccc(-c3cc(-c4ccccn4)nc(-c4ccccn4)c3)cc2)cc1` [Compound 25, 1-[4-(2,2':6',2''-Terpyridin-4'-yl)phenylmethyl]pyridinium bromide], the fold induction at 2 µg/mL in assay [1] (setting [5]) was 1.2. In addition, the fold induction at 10 µg/mL in assay [1] (ratio to DMSO control = 1.0) was 1.1. Further, in assay [1] (setting [6]), the fold induction at 50 µg/mL was found to be 2.9. Also, the viability at 2 µg/mL in assay [2] (setting [3]) was found to be 140%; in assay [2] (setting [4]), 110%.

`CCCCCCCCCc1cc[n+](Cc2ccc(-c3cc(-c4ccccn4)nc(-c4ccccn4)c3)cc2)cc1` [Compound 26, 4-Nonyl-1-[4-(2,2':6',2''-terpyridin-4'-yl)phenylmethyl]pyridinium bromide]: in assay [1] (ratio to DMSO control = 1.0), the fold induction at 20 µg/mL is 3 and the fold induction at 100 µg/mL was determined as 3. In assay [2] (setting [3]), the viability at 2 µg/mL amounted to 160% and the viability at 10 µg/mL worked out at 140%. In assay [2] (setting [4]), the viability at 2 µg/mL came to 140% and the viability at 10 µg/mL came to 130%.

For the origin of these results see patent publication EP0677293A1, “PHARMACEUTICAL USE OF TERPYRIDINE DERIVATIVE” (priority 1992, dated 1994).
